“And” between values parts separate entries of the source, which are not always exact repeats. Equal entries are not always repeated.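 1) Cells in 96-well plates. 2) Compound, 48 h, 5 concentrations. 3) Linear interpolation between surrounding doses. 4) Unreached endpoint = highest concentration. GI50 is the concentration that inhibits growth by half. At the TGI there is no net growth.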

This assay relates to MDA-MB-468 breast. The experiment in a line: inhibition of tumour cell growth, NCI panel, 48 h.
With `CCCCCCCCCCCCCC(=S)NCCCC[C@H](NC(=O)OCc1ccccc1)C(=O)Nc1ccccc1`, the GI50 is 2.69 µM and the TGI was greater than 100 µM.
In the case of `COc1cc2c3c(cccc3c1)C(=O)N(CCN1CCCC1)C2=O`, the GI50 is 1.32 µM and the TGI was determined as 3.7 µM.
Turning to `COc1c(C2CC(=O)Nc3c2cnn3Cc2ccco2)cc2c(c1OC)OCO2` (configuration not stated), the GI50 is 0.318 µM and the TGI is greater than 100 µM.
The like results for `COC1(C(=O)N2Cc3nc(Cl)nc(N[C@H](C)c4cc(N)cc(C(F)(F)F)c4)c3C2)CCOCC1` were, in that order, 4.44 µM and 40.1 µM.
As for `COc1ccc(C(=S)N2CCN(c3cccc(Cl)c3)CC2)cc1`, the GI50 was 32.3 µM and the TGI is greater than 100 µM.
`CCC(C)C1NC(=O)c2nc(oc2-c2ccccc2)-c2csc(n2)-c2csc(n2)-c2nc(oc2C)-c2coc(n2)CNC(=O)C(C(C)CC)NC1=O` (configuration not stated): the GI50 was 0.03 µM and the TGI worked out at 0.101 µM.
As to `Fc1cccc(COc2ccc(Nc3ncncc3C#Cc3ccccc3)cc2Cl)c1`, the GI50 is 8.77 µM and the TGI is greater than 25 µM.
The like results for `Nc1n[nH]c2ccc([C@@H]3Nc4ccc5[nH]ncc5c4[C@H]4[C@H]5CCC(C5)[C@H]43)cc12` were, in that order, 0.249 µM and 1.42 µM.
For `O=C(Nc1cccc(-n2ccc3c(NC(=O)c4ccccc4)nccc32)c1)c1cccc(C(F)(F)F)c1`, the GI50 is 0.0295 µM and the TGI came out at 1.54 µM.
As to `CCN1CCN(c2nc(NCCCNc3ccnc4cc(Cl)ccc34)c3ccccc3n2)CC1`, the GI50 was 1.62 µM and the TGI came out at 3.61 µM.
The like results for `O=C(Nc1nc2ccccc2s1)OCC(F)(F)F` were, in that order, greater than 100 µM and greater than 100 µM.
Regarding `CN1CCN(CC#Cc2cccc(C(=O)c3cnn(-c4ccc(F)cc4)c3N)c2)CC1`, the GI50 was greater than 25 µM and the TGI was greater than 25 µM.
For `CC1(C)N=C(N)N=C(N)N1c1ccc(CCCCc2ccc(S(=O)(=O)F)cc2)cc1`, the GI50 was 0.539 µM and the TGI came to 9.33 µM.
The like results for `Oc1ccccc1/C=N/Nc1ccc2ccccc2n1` were, in that order, 2.6 µM and 14.8 µM.
In the same order, the values of `O=C(CSc1nc2ccc([N+](=O)[O-])cc2[nH]1)Nc1ccc(F)c(Cl)c1` are 1.17 µM and 5.07 µM.
The like results for `C[C@@H]1CC[C@@H]2[C@@H]1[C@H](OC(=O)/C=C/c1ccccc1)[C@]1(c3ccccc3)C[C@@H](OC(=O)CO)[C@@]2(C)O1` were, in that order, 13.6 µM and 29 µM.
As to `COc1cc(/C=C\[N+](=O)[O-])ccc1O`, the GI50 was 1.69 µM and the TGI came out at 3.5 µM.
On to `CC(C)(C)c1cc(O)c(O)c(C(C)(C)C)c1`, for which the GI50 was 2.14 µM and the TGI was 4.77 µM.
The like results for `COc1ccccc1NC1=C(Cl)C(=O)c2nc(C)ccc2C1=O` were, in that order, 1.52 µM and 3.06 µM.
For `CN=C(N)N/N=C(\c1ccccc1)c1ccc(Br)cc1`, the GI50 was 0.275 µM and the TGI was 1.08 µM.
In the same order, the values of `O=C(NNc1nc2c(F)cccc2n2cccc12)c1cnccn1` are 0.535 µM and 2.17 µM.
For the compound `COc1ccc(C(=O)Nc2ncc(Cc3ccc(Cl)cc3)s2)cc1`, the GI50 was 0.0378 µM and the TGI was 17.5 µM.
As to `C=C1C(=O)O[C@H]2[C@H]1CC/C(CNC(=O)c1c[nH]c3ccc(F)cc13)=C\CC[C@@]1(C)O[C@@H]21`, the GI50 is 0.658 µM and the TGI is 2.06 µM.
Take `COC(=O)C(=O)CC(=O)CCn1ncc(Cl)c(Cl)c1=O`: the GI50 was 7.01 µM and the TGI came out at 22.5 µM.
In the case of `CCn1c(SCC(=O)Nc2cccc(C(=O)/C=C/c3cc(OC)c(OC)c(OC)c3)c2)nc2ccccc2c1=O`, the GI50 was 4.22 µM and the TGI is 40.2 µM.
Consider `Cc1cc2nc3c4cc(Cl)ccc4n(CCN(C)C)c3nc2cc1C`, for which the GI50 is 1.41 µM and the TGI came out at 3.58 µM.
The like results for `Cc1nn(-c2ccc(F)cc2)c2ncnc(Nc3ccc(NC(=O)Nc4ccc(Cl)c(C(F)(F)F)c4)cc3)c12` were, in that order, 1.8 µM and 4.54 µM.
The like results for `C=CC(=O)N[C@H]1C=C(C)c2c(-c3cnc4ccccc4c3)c3c(N)ncnc3n2C1` were, in that order, 0.0265 µM and 0.485 µM.
The like results for `NC(N)=N/N=C(/c1ccccc1)c1ccc(F)cc1` were, in that order, 0.22 µM and 2.46 µM.
Take `Cc1cc([C@@H](C)Nc2ccccc2C(=O)O)c2nc(N3CCOCC3)cc(=O)n2c1`: the GI50 was 2.21 µM and the TGI was greater than 10 µM.
Turning to `CN1CCN(Cc2ccc(C(=O)Nc3cncc(C#Cc4cnc(N)c5ccccc45)c3)cc2C(F)(F)F)CC1`, the GI50 was 1.77 µM and the TGI is 3.65 µM.
As to `CC(=O)Nc1cccc(-n2c(=O)n(C3CC3)c(=O)c3c(Nc4ccc(I)cc4F)n(C)c(=O)c(C)c32)c1`, the GI50 was 2.82 µM and > 10 µM; the TGI is 23.6 µM and > 10 µM.
With `C#Cc1nc(C(=O)NCCC(=O)Nc2ccc(NC(=O)c3ccc(/C=C/C(=O)c4nccn4C)cc3)cc2)cs1`, the GI50 is 0.891 µM and the TGI stood at 2.17 µM.
Consider `Cc1ccn2c3c(c(C(=O)O)c2c1)C(=O)c1ccccc1C3=O`, for which the GI50 was 17.3 µM and the TGI was greater than 100 µM.
In the same order, the values of `N#CC(=C1SCS1)[N+](=O)[O-]` are 0.249 µM and 0.846 µM.
Consider `Brc1cccc(-c2cc(-c3ccc4c(c3)OCCO4)[nH]n2)c1`, for which the GI50 is 5.6 µM and the TGI was found to be 33.5 µM.
In the case of `COc1cccc(/C=C/C(=O)c2cc3c(N)c(C(=O)Nc4ccccc4C)sc3nc2C)c1`, the GI50 is 0.887 µM and the TGI is 2.04 µM.
For the compound `Cc1ccc2c(C(C[N+](=O)[O-])c3cccs3)c(-c3ccccc3)[nH]c2c1` (configuration not stated), the GI50 was 0.82 µM and the TGI amounted to 3.02 µM.
Regarding `O=c1cc(-c2cccc(F)c2)[nH]c2cc3c(cc12)OCO3`, the GI50 was 10.8 µM and the TGI turned out to be 45.2 µM.
As to `CNC(=O)c1ccccc1CC1(O)c2ccccc2Oc2ccccc21`, the GI50 is 3.55 µM and the TGI turned out to be 20.5 µM.
In the same order, the values of `CCn1c(-c2nonc2N)nc2c(C#CCN)ncc(OCCCN)c21` are greater than 25 µM and greater than 25 µM.
`COc1cc2ncn(-c3cc(OCc4ccccc4Cl)c(C(N)=O)s3)c2cc1OC`: the GI50 was 0.0499 µM and the TGI was determined as 0.429 µM.
In the same order, the values of `Clc1ccccc1C(c1ccccc1)(c1ccccc1)n1ccnc1` are 1.77 µM and 6.21 µM.
The like results for `Cc1[nH]c(/C=C2\C(=O)Nc3ccc(S(=O)(=O)Cc4c(Cl)cccc4Cl)cc32)c(C)c1C(=O)N1CCC[C@@H]1CN1CCCC1` were, in that order, 1.52 µM and 2.94 µM.
`COc1ccc(-c2nn(-c3cccc(Cl)c3)cc2C2CC(c3ccccc3)=NN2C(C)=O)cc1` (configuration not stated): the GI50 was 16.3 µM and the TGI is greater than 100 µM.
In the same order, the values of `CN(C)CC(=O)N1CCC(c2ccc(NC(=O)c3ncc(C#N)[nH]3)c(C3=CCCCC3)c2)CC1` are 4.86 µM and 18.5 µM.

The values are drawn from PubChem BioAssay (NCI).
